Reference: US11021457B2, “Class of isoindolone-imide ring-1,3-dione-2-ene compounds, composition and use thereof” (WIGEN BIOMEDICINE TECHNOLOGY (SHANGHAI) CO., LTD., priority 2017, dated 2021)

Legend:
Format in all cases: cell-based
MDA-MB-453 = experiment: Inhibition of tumor cell proliferation, CellTiter-Glo, MDA-MB-453; settings: compound concentration 50 μM, 72 hours; for cell survival rate (%) at 50 µM: Homo sapiens, MDA-MB-453, read-out: Inhibitory activity against proliferation (cell survival rate) MDA-MB-453
Outline: (§1)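 Compound tested at 50 μM for 72 h, read by CellTiter-Glo. Survival rate = (treated−blank)/(control−blank) RLU ×100, binned as +++ ≤30%, ++ >30-≤60%, + 60-<90%. Seeding 2000-10000 cells/well depending on growth rate.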

BxPC-3 = experiment: Inhibition of tumor cell proliferation, CellTiter-Glo, BxPC-3; settings: compound concentration 50 μM, 72 hours; for cell survival rate (%) at 50 µM: Homo sapiens, BXPC-3, read-out: Inhibitory activity against proliferation (cell survival rate) BxPC-3
Outline: as §1

SU-DHL6 = experiment: Inhibition of tumor cell proliferation, CellTiter-Glo, SU-DHL6; settings: compound concentration 50 μM, 72 hours; for cell survival rate (% of control) at 50 µM: Homo sapiens, SU-DHL-6, read-out: Inhibitory activity against proliferation (cell survival rate) SU-DHL6
Outline: as §1

RPMI-8226 = experiment: Inhibition of tumor cell proliferation, CellTiter-Glo, RPMI-8226; settings: compound concentration 50 μM, 72 hours; for cell survival rate (% of control) at 50 µM: Homo sapiens, RPMI-8226, read-out: Inhibitory activity against proliferation (cell survival rate) RPMI-8226
Outline: as §1

K562 = experiment: Inhibition of tumor cell proliferation, CellTiter-Glo, K562; settings: compound concentration 50 μM, 72 hours; for cell survival rate (%) at 50 µM: Homo sapiens, K562, read-out: Inhibitory activity against proliferation (cell survival rate) K562
Outline: as §1

A549 = experiment: Inhibition of tumor cell proliferation, CellTiter-Glo, A549; settings: compound concentration 50 μM, 72 hours; for cell survival rate (% of control) at 50 µM: Homo sapiens, A549, read-out: Inhibitory activity against proliferation (cell survival rate) A549
Outline: as §1

SMILES	cell survival rate (%) at 50 µM (MDA-MB-453) [%]	cell survival rate (%) at 50 µM (BxPC-3) [%]	cell survival rate (% of control) at 50 µM (SU-DHL6) [%]	cell survival rate (% of control) at 50 µM (RPMI-8226) [%]	cell survival rate (%) at 50 µM (K562) [%]	cell survival rate (% of control) at 50 µM (A549) [%]	Inhibitory activity against proliferation (cell survival rate) MDA-MB-453 (MDA-MB-453)	Inhibitory activity against proliferation (cell survival rate) BxPC-3 (BxPC-3)	Inhibitory activity against proliferation (cell survival rate) SU-DHL6 (SU-DHL6)	Inhibitory activity against proliferation (cell survival rate) RPMI-8226 (RPMI-8226)	Inhibitory activity against proliferation (cell survival rate) K562 (K562)	Inhibitory activity against proliferation (cell survival rate) A549 (A549)
O=C1CCC(N2Cc3c(N/C=C4\C(=O)CCC(c5ccccc5)CC4=O)cccc3C2=O)C(=O)N1 (stereo not drawn) [Compound 124]	≤ 30	30 to 60	60 to 90	60 to 90	60 to 90	60 to 90	–	–	–	–	–	–
CN(C)c1ccc(Br)c(C2CC(=O)C(=CNc3cccc4c3CN(C3CCC(=O)NC3=O)C4=O)C(=O)C2)c1 (stereo not drawn) [Compound 31]	–	–	–	–	–	–	+++ (survival rate (%)≤30)	+ (60≤survival rate (%)<90)	+++ (survival rate (%)≤30)	+++ (survival rate (%)≤30)	+++ (survival rate (%)≤30)	+++ (survival rate (%)≤30)
O=C1CCC(N2Cc3c(NC(=O)OCc4ccc(NC=C5C(=O)CC(c6ccccc6)CC5=O)nc4)cccc3C2=O)C(=O)N1 (stereo not drawn) [Compound 82]	30 to 60	60 to 90	≤ 30	60 to 90	60 to 90	≤ 30	–	–	–	–	–	–
COCCOCCOc1ccccc1C1CC(=O)C(=CNc2cccc3c2CN(C2CCC(=O)NC2=O)C3=O)C(=O)C1 (stereo not drawn) [Compound 110]	–	–	–	–	–	–	+ (60≤survival rate (%)<90)	++ (30<survival rate (%)≤60)	+ (60≤survival rate (%)<90)	++ (30<survival rate (%)≤60)	++ (30<survival rate (%)≤60)	++ (30<survival rate (%)≤60)
O=C1CCC(N2Cc3c(NS(=O)(=O)N4CCN(CCNC=C5C(=O)CC(c6ccccc6)CC5=O)CC4)cccc3C2=O)C(=O)N1 (stereo not drawn) [Compound 72]	–	–	–	–	–	–	+ (60≤survival rate (%)<90)	+ (60≤survival rate (%)<90)	+++ (survival rate (%)≤30)	+ (60≤survival rate (%)<90)	+++ (survival rate (%)≤30)	+ (60≤survival rate (%)<90)
O=C(/C=C\CN1CCN(CCNC=C2C(=O)CC(c3ccccc3)CC2=O)CC1)Nc1cccc2c1CN(C1CCC(=O)NC1=O)C2=O (stereo not drawn) [Compound 93]	–	–	–	–	–	–	++ (30<survival rate (%)≤60)	+ (60≤survival rate (%)<90)	+++ (survival rate (%)≤30)	+++ (survival rate (%)≤30)	++ (30<survival rate (%)≤60)	++ (30<survival rate (%)≤60)
O=C1CCC(N2Cc3c(NC=C4C(=O)CC(c5cccs5)CC4=O)cccc3C2=O)C(=O)N1 (stereo not drawn) [Compound 36]	–	–	–	–	–	–	++ (30<survival rate (%)≤60)	+ (60≤survival rate (%)<90)	+++ (survival rate (%)≤30)	+ (60≤survival rate (%)<90)	+ (60≤survival rate (%)<90)	+ (60≤survival rate (%)<90)
O=C1CCC(N2C(=O)c3ccc(NC=C4C(=O)CC(c5ccccc5)CC4=O)cc3C2=O)C(=O)N1 (stereo not drawn) [Compound 9]	–	–	–	–	–	–	+ (60≤survival rate (%)<90)	++ (30<survival rate (%)≤60)	+ (60≤survival rate (%)<90)	++ (30<survival rate (%)≤60)	++ (30<survival rate (%)≤60)	++ (30<survival rate (%)≤60)
O=C1CCC(N2Cc3c(NC(=O)C4CCN(CCNC=C5C(=O)CC(c6ccccc6)CC5=O)CC4)cccc3C2=O)C(=O)N1 (stereo not drawn) [Compound 61]	–	–	–	–	–	–	+++ (survival rate (%)≤30)	+ (60≤survival rate (%)<90)	++ (30<survival rate (%)≤60)	+ (60≤survival rate (%)<90)	+ (60≤survival rate (%)<90)	+ (60≤survival rate (%)<90)
O=C1CCC(N2C(=O)c3cccc(NC(=O)OCc4ccc(NC=C5C(=O)CC(c6ccccc6)CC5=O)nc4)c3C2=O)C(=O)N1 (stereo not drawn) [Compound 83]	–	–	–	–	–	–	++ (30<survival rate (%)≤60)	+ (60≤survival rate (%)<90)	+ (60≤survival rate (%)<90)	+ (60≤survival rate (%)<90)	+ (60≤survival rate (%)<90)	+ (60≤survival rate (%)<90)
O=C1CCC(N2Cc3c(NC(=O)CN4CCN(CCNC=C5C(=O)CC(c6ccccc6)CC5=O)CC4)cccc3C2=O)C(=O)N1 (stereo not drawn) [Compound 54]	–	–	–	–	–	–	++ (30<survival rate (%)≤60)	+ (60≤survival rate (%)<90)	+++ (survival rate (%)≤30)	++ (30<survival rate (%)≤60)	+++ (survival rate (%)≤30)	+++ (survival rate (%)≤30)
O=C1CCC(N2Cc3c(N/C=C4\C(=O)Nc5cc(C(F)(F)F)ccc5C4=O)cccc3C2=O)C(=O)N1 (stereo not drawn) [Compound 137]	60 to 90	30 to 60	≤ 30	≤ 30	30 to 60	60 to 90	–	–	–	–	–	–
O=C1CCC(N2C(=O)c3cccc(NS(=O)(=O)N4CCN(CCNC=C5C(=O)CC(c6ccccc6)CC5=O)CC4)c3C2=O)C(=O)N1 (stereo not drawn) [Compound 71]	–	–	–	–	–	–	+++ (survival rate (%)≤30)	+ (60≤survival rate (%)<90)	+++ (survival rate (%)≤30)	+++ (survival rate (%)≤30)	+++ (survival rate (%)≤30)	+++ (survival rate (%)≤30)
O=C1CCC(N2Cc3c(NC(=O)CCC(=O)N4CCN(CCNC=C5C(=O)CC(c6ccccc6)CC5=O)CC4)cccc3C2=O)C(=O)N1 (stereo not drawn) [Compound 91]	–	–	–	–	–	–	++ (30<survival rate (%)≤60)	+ (60≤survival rate (%)<90)	++ (30<survival rate (%)≤60)	++ (30<survival rate (%)≤60)	++ (30<survival rate (%)≤60)	++ (30<survival rate (%)≤60)
O=C1CCC(N2Cc3c(NC(=O)c4ccc(NC=C5C(=O)CC(c6ccccc6)CC5=O)nc4)cccc3C2=O)C(=O)N1 (stereo not drawn) [Compound 66]	–	–	–	–	–	–	++ (30<survival rate (%)≤60)	+ (60≤survival rate (%)<90)	+++ (survival rate (%)≤30)	+ (60≤survival rate (%)<90)	+++ (survival rate (%)≤30)	+++ (survival rate (%)≤30)
COc1ccc(C2CC(=O)C(=CNc3cccc4c3CN(C3CCC(=O)NC3=O)C4=O)C(=O)C2)cc1 (stereo not drawn) [Compound 32]	–	–	–	–	–	–	++ (30<survival rate (%)≤60)	+ (60≤survival rate (%)<90)	+++ (survival rate (%)≤30)	+++ (survival rate (%)≤30)	+++ (survival rate (%)≤30)	+++ (survival rate (%)≤30)
O=C1CCC(N2Cc3c(NC=C4C(=O)NC(c5ccccc5)NC4=O)cccc3C2=O)C(=O)N1 (stereo not drawn) [Compound 115]	≤ 30	60 to 90	30 to 60	60 to 90	30 to 60	30 to 60	–	–	–	–	–	–
